Literature values in article PMC3726058 (European journal of pharmacology, 2010).

Experiments:
[1] = test system: σ1 versus σ2; conditions: rat brain membranes; ref Klouz et al., 2003; Matsuno et al., 1996
[2] = biological target: adrenergic α2; conditions: read-out: Ki α2; ref Yous et al., 2005
[3] = biological target: histamine H1; conditions: read-out: Ki H1; ref Yous et al., 2005
[4] = test system: σ1 over the σ2 subtype; conditions: ref Bowen, 1993

With `COc1ccc(CN2CCN(Cc3ccccc3)CC2)c(O)c1OC` [BHDP] as the compound, how does the “affinity for σ1 versus σ2” value [1] read?
The value was “approximately 100 fold”.

For `COc1ccc(CCN2CCN(CCCc3ccccc3)CC2)cc1OC` [SA4503], which “affinity for σ1 versus σ2” value [1] is on record?
Its value is “approximately 100 fold”.

What does the source list for `CCCc1ccc2c(c1)sc(=O)n2CCN1CCCCCC1` [SN56, 3-(2-(azepan-1-yl)ethyl)-6-propylbenzo[d]thiazol-2(3H)-one]?
Ki [2]: 0.205 µM; Ki [3]: 0.311 µM

For `CC(C)=CCN1CC[C@]2(C)c3cc(O)ccc3C[C@H]1[C@H]2C` [[^3H](+)-Pentazocine], which “preference for σ1 over σ2 subtype” value [4] is on record?
Its value is greater than 700 fold.
